# In patent US20180177890A1, “LIGAND-CYTOTOXIC DRUG CONJUGATE, PREPARATION METHOD THEREOF, AND USE THEREOF” (priority 2015, published 2018):
# Numbered stars: 1 amine (or outer) side, 2 acyl side, 3 side chain; on linkers, the order of the positions; unused ones are H or OH. Square brackets hold non-standard residues; d marks the D form. Peptide text beside a SMILES is read from it. X1 = CO[C@H]([C@@H](C)C(=O)[*:2])[C@@H]1C[C@@H]2C[C@@H]2N1[*:1]; X3 = CO[C@H]([C@@H](C)C(=O)[*:2])[C@@H]1CC[C@H](C)N1[*:1]; X5 = CO[C@H]([C@@H](C)C(=O)[*:2])[C@@H]1C[C@H](F)CN1[*:1]; X2 = CO[C@H]([C@@H](C)C(=O)[*:2])[C@@H]1CC2(CC2)CN1[*:1]; X4 = C=C1C[C@@H]([C@H](OC)[C@@H](C)C(=O)[*:2])N([*:1])C1; Dolaproine = CO[C@@H]([C@@H]1CCCN1)[C@@H](C)C(=O)O; Dil = CC[C@H](C)[C@H](NC)[C@@H](CC(=O)O)OC; Phe(2-Cl) = N[C@@H](Cc1ccccc1Cl)C(=O)O; Phe(4-F) = N[C@@H](Cc1ccc(F)cc1)C(=O)O; Phe(4-Me) = Cc1ccc(C[C@H](N)C(=O)O)cc1; Phe(2-F) = N[C@@H](Cc1ccccc1F)C(=O)O; 2Thi = N[C@@H](Cc1cccs1)C(=O)O; NMeV = CN[C@H](C(=O)O)C(C)C
# Assays:
# HepG2 tumor cells = assay: In vitro tumor cell proliferation inhibition test (CCK-8), HepG2; assay type: cell-based; settings: Homo sapiens, HepG2, 76 hours incubation
# Protocol: (§1) The objective of this experiment is to test the in vitro inhibition effect of the formula (D) according to the present invention on the proliferation of HepG2 tumor cells (human hepatocellular carcinoma cells, Chinese Academy of Sciences cell bank, No. #TCHu 72) and A549 tumor cells (human lung adenocarcinoma, Chinese Academy of Sciences cell bank, No. #TCHu150). The cells were treated with different concentrations of the compound in vitro. After 76 hours incubation, the cell proliferation was detected by CCK-8 reagent (Cell Counting Kit-8, Dojindo, No. CK04), and the activity of the compound in vitro was evaluated according to the IC50 value.
# (§2) The following is an example of a method for in vitro proliferation inhibition test of HepG2 cells for the purpose of exemplifying the test of the compounds according to the present invention for the proliferation inhibitory activity on tumor cells in vitro. This method is also applicable to, but not limited to, the in vitro proliferation inhibition tests on other tumor cells.
# HepG2 cells in logarithmic growth phase were washed with PBS (phosphate buffer, ThermoFisher) once, and added with 2-3 ml trypsin (0.25% trypsin-EDTA (1×), Gibico, Life Technologies) to digest for 2-3 min. Then, 10-15 ml of cell culture medium (DMEM/F12 medium, Invitrogen; 10% (v/v)) was added after the cells were completely digested. The digested HepG2 cells were eluted, and centrifuged at 1000 rpm for 3 min. The supernatant was discarded, and then 10-20 ml of cell culture medium were added to resuspend the cells to prepare a single cell suspension.
# The HepG2 single cell suspension was mixed and the cell density was adjusted to 6×10^4 cells/ml with cell culture medium. The density-adjusted cell suspension was mixed uniformly and added to a 96-well cell culture plate at 100 μl/well. The plates were incubated in a 5% CO2 incubator at 37° C. for 18-20 hours.
# (§3) The compound was dissolved with DMSO (dimethylsulfoxide, Shanghai Titan Technology Co., Ltd.) to prepare a storage solution having an initial concentration of 10 mM.
# (§4) 10 μl of 10 mM compound was added to the wells of the first column of a U-shaped bottom 96-well plate (sample plate 1), and 90 μl of DMSO was added to each compound sample well of the first column, i.e., the stock solution was diluted 10 times as the starting point. Then, 3-fold gradient dilutions were performed, with each compound concentration […]. The diluent was DMSO solution. 60 μl of 100% DMSO was added to 12th column and 20 μl of 1 mM positive drug control was added to 11th column.
# (§5) In a new U-shaped bottom 96-well plate (sample plate 2), each sample from the sample plate 1 was diluted 20 times with the complete medium. Then, in another new U-shaped bottom 96-well plate (sample plate 3), each well sample from the sample plate 2 was subjected to a final 10-fold dilution.
# (§6) After the cell pre-culture was completed, the 96-well cell culture plate was removed and the supernatant was discarded. Each sample dilution in the 96-well sample plate 3 was successively added to a 96-well cell culture plate at 100 μl/well. Each compound sample was tested in duplicate at each concentration. […] After completion of the loading operation, the 96-well cell culture plate was incubated at 37° C. for about 76 hours in a 5% CO2 incubator.
# (§7) The 96-well cell culture plate was taken and CCK-8 was added to each well at […]. The cell culture plate was gently pat and mixed for more than 10 times and incubated at 37° C. for 2 hours in a 5% CO2 incubator.
# (§8) The 96-well cell culture plate was taken and placed in a microplate reader (PerkinElmer, VICTOR 3) and the absorbance at 450 nm was measured using the microplate reader.
# (§9) Data was analyzed with Microsoft Excel and Graphpad Prism 5.
# A549 tumor cells = assay: In vitro tumor cell proliferation inhibition test (CCK-8), A549; assay type: cell-based; settings: Homo sapiens, A549, 76 hours incubation
# Protocol: as §1, §2, §3, §4, §5, §6, §7, §8
# In accordance with the above procedure, the inhibition activity of the compound according to the present invention on the proliferation of A549 tumor cells in vitro was tested. The cell culture medium was also DMEM/F12.
# as §9
structure (smiles),measurement,setting,value
"CC[C@H](C)[C@@H]([C@@H](CC(=O)N1[C@H]2C[C@H]2C[C@H]1[C@H](OC)[C@@H](C)C(=O)N[C@@H](Cc1ccccc1)C(=O)O)OC)N(C)C(=O)[C@@H](NC(=O)[C@@H](NC)C(C)C)C(C)C [Compound 1, (S)-2-((2R,3R)-3-((1S,3S,5S)-2-((3R,4S,5S)-4-((S)—N,3-dimethyl-2-((S)-3-methyl-2-(methylamino)butanamido)butanamido)-3-methoxy-5-methylheptanoyl)-2-azabicyclo[3.1.0]hexan-3-yl)-3-methoxy-2-methylpropanamido)-3-phenylpropanoic acid] (H-[NMeV]V[Dil][X1]F-OH)",IC50,HepG2 tumor cells,8.6 nM
same,IC50,A549 tumor cells,12.8 nM
"CC[C@H](C)[C@@H]([C@@H](CC(=O)N1[C@H]2C[C@H]2C[C@H]1[C@H](OC)[C@@H](C)C(=O)N[C@@H](Cc1ccccc1Cl)C(=O)O)OC)N(C)C(=O)[C@@H](NC(=O)[C@@H](NC)C(C)C)C(C)C [Compound 2, (S)-3-(2-chlorophenyl)-2-((2R,3R)-3-((1S,3S,5S)-2-((3R,4S,5S)-4-((S)—N,3-dimethyl-2-((S)-3-methyl-2-(methylamino)butanamido)butanamido)-3-methoxy-5-methylheptanoyl)-2-azabicyclo[3.1.0]hexan-3-yl)-3-methoxy-2-methylpropanamido)propanoic acid] (H-[NMeV]V[Dil][X1][Phe(2-Cl)]-OH)",IC50,HepG2 tumor cells,4.12 nM
same,IC50,A549 tumor cells,2.33 nM
"CC[C@H](C)[C@@H]([C@@H](CC(=O)N1[C@@H](C)CC[C@H]1[C@H](OC)[C@@H](C)C(=O)N[C@@H](Cc1ccccc1)C(=O)O)OC)N(C)C(=O)[C@@H](NC(=O)[C@@H](NC)C(C)C)C(C)C [Compound 3, (S)-2-((2R,3R)-3-((2S,5S)-1-((3R,4S,5S)-4-((S)—N,3-dimethyl-2-((S)-3-methyl-2-(methylamino)butanamido)butanamido)-3-methoxy-5-methylheptanoyl)-5-methylpyrrolidin-2-yl)-3-methoxy-2-methylpropanamido)-3-phenylpropanoic acid] (H-[NMeV]V[Dil][X3]F-OH)",IC50,HepG2 tumor cells,9.33 nM
same,IC50,A549 tumor cells,16.2 nM
"CC[C@H](C)[C@@H]([C@@H](CC(=O)N1[C@H]2C[C@H]2C[C@H]1[C@H](OC)[C@@H](C)C(=O)N[C@@H](Cc1ccccc1F)C(=O)O)OC)N(C)C(=O)[C@@H](NC(=O)[C@@H](NC)C(C)C)C(C)C [Compound 7, (S)-2-((2R,3R)-3-((1S,3S,5S)-2-((3R,4S,5S)-4-((S)—N,3-dimethyl-2-((S)-3-methyl-2-(methylamino)butanamido)butanamido)-3-methoxy-5-methylheptanoyl)-2-azabicyclo[3.1.0]hexan-3-yl)-3-methoxy-2-methylpropanamido)-3-(2-fluorophenyl)propanoic acid] (H-[NMeV]V[Dil][X1][Phe(2-F)]-OH)",IC50,HepG2 tumor cells,283 nM
same,IC50,A549 tumor cells,776 nM
"C=C1C[C@@H]([C@H](OC)[C@@H](C)C(=O)N[C@@H](Cc2ccccc2)C(=O)O)N(C(=O)C[C@@H](OC)[C@H]([C@@H](C)CC)N(C)C(=O)[C@@H](NC(=O)[C@@H](NC)C(C)C)C(C)C)C1 [Compound 9, (S)-2-((2R,3R)-3-((S)-1-((3R,4S,5S)-4-((S)—N,3-dimethyl-2-((S)-3-methyl-2-(methylamino)butanamido)butanamido)-3-methoxy-5-methylheptanoyl)-4-methylenepyrrolidin-2-yl)-3-methoxy-2-methylpropanamido)-3-phenylpropanoic acid] (H-[NMeV]V[Dil][X4]F-OH)",IC50,HepG2 tumor cells,55 nM
same,IC50,A549 tumor cells,114 nM
"CC[C@H](C)[C@@H]([C@@H](CC(=O)N1CC2(CC2)C[C@H]1[C@H](OC)[C@@H](C)C(=O)N[C@@H](Cc1ccccc1F)C(=O)O)OC)N(C)C(=O)[C@@H](NC(=O)[C@@H](NC)C(C)C)C(C)C [Compound 11, (S)-2-((2R,3R)-3-((S)-5-((3R,4S,5S)-4-((S)—N,3-dimethyl-2-((S)-3-methyl-2-(methylamino)butanamido)butanamido)-3-methoxy-5-methylheptanoyl)-5-azaspiro[2.4]heptan-6-yl)-3-methoxy-2-methylpropanamido)-3-(2-fluorophenyl)propanoic acid] (H-[NMeV]V[Dil][X2][Phe(2-F)]-OH)",IC50,HepG2 tumor cells,6.6 nM
same,IC50,A549 tumor cells,27.2 nM
"CC[C@H](C)[C@@H]([C@@H](CC(=O)N1CC2(CC2)C[C@H]1[C@H](OC)[C@@H](C)C(=O)N[C@@H](Cc1ccccc1)C(=O)O)OC)N(C)C(=O)[C@@H](NC(=O)[C@@H](NC)C(C)C)C(C)C [Compound 13, (S)-2-((2R,3R)-3-((S)-5-((3R,4S,5S)-4-((S)—N,3-dimethyl-2-((S)-3-methyl-2-(methylamino)butanamido)butanamido)-3-methoxy-5-methylheptanoyl)-5-azaspiro[2.4]heptan-6-yl)-3-methoxy-2-methylpropanamido)-3-phenylpropanoic acid] (H-[NMeV]V[Dil][X2]F-OH)",IC50,HepG2 tumor cells,11.7 nM
same,IC50,A549 tumor cells,30.2 nM
"CC[C@H](C)[C@@H]([C@@H](CC(=O)N1[C@H]2C[C@H]2C[C@H]1[C@H](OC)[C@@H](C)C(=O)N[C@@H](Cc1ccc(C)cc1)C(=O)O)OC)N(C)C(=O)[C@@H](NC(=O)[C@@H](NC)C(C)C)C(C)C [Compound 15, (S)-2-((2R,3R)-3-((1S,3S,5S)-2-((3R,4S,5S)-4-((S)—N,3-dimethyl-2-((S)-3-methyl-2-(methylamino)butanamido)butanamido)-3-methoxy-5-methylheptanoyl)-2-azabicyclo[3.1.0]hexan-3-yl)-3-methoxy-2-methylpropanamido)-3-(p-tolyl)propanoic acid] (H-[NMeV]V[Dil][X1][Phe(4-Me)]-OH)",IC50,HepG2 tumor cells,47.5 nM
same,IC50,A549 tumor cells,75.5 nM
"CC[C@H](C)[C@@H]([C@@H](CC(=O)N1[C@H]2C[C@H]2C[C@H]1[C@H](OC)[C@@H](C)C(=O)N[C@@H](Cc1cccs1)C(=O)O)OC)N(C)C(=O)[C@@H](NC(=O)[C@@H](NC)C(C)C)C(C)C [Compound 16, (S)-2-((2R,3R)-3-((1S,3S,5S)-2-((3R,4S,5S)-4-((S)—N,3-dimethyl-2-((S)-3-methyl-2-(methylamino)butanamido)butanamido)-3-methoxy-5-methylheptanoyl)-2-azabicyclo[3.1.0]hexan-3-yl)-3-methoxy-2-methylpropanamido)-3-(thiophen-2-yl)propanoic acid] (H-[NMeV]V[Dil][X1][2Thi]-OH)",IC50,HepG2 tumor cells,13.9 nM
same,IC50,A549 tumor cells,53 nM
"CC[C@H](C)[C@@H]([C@@H](CC(=O)N1C[C@@H](F)C[C@H]1[C@H](OC)[C@@H](C)C(=O)N[C@@H](Cc1ccccc1)C(=O)O)OC)N(C)C(=O)[C@@H](NC(=O)[C@@H](NC)C(C)C)C(C)C [Compound 44, (S)-2-((2R,3R)-3-((2S,4S)-1-((3R,4S,5S)-4-((S)—N,3-dimethyl-2-((S)-3-methyl-2-(methylamino)butanamido)butanamido)-3-methoxy-5-methylheptanoyl)-4-fluoropyrrolidin-2-yl)-3-methoxy-2-methylpropanamido)-3-phenylpropanoic acid] (H-[NMeV]V[Dil][X5]F-OH)",IC50,A549 tumor cells,179 nM
"CC[C@H](C)[C@@H]([C@@H](CC(=O)N1CCC[C@H]1[C@H](OC)[C@@H](C)C(=O)N[C@@H](Cc1ccc(F)cc1)C(=O)O)OC)N(C)C(=O)[C@@H](NC(=O)[C@@H](NC)C(C)C)C(C)C [Compound 46, (S)-2-((2R,3R)-3-((S)-1-((3R,4S,5S)-4-((S)—N,3-dimethyl-2-((S)-3-methyl-2-(methylamino)butanamido)butanamido)-3-methoxy-5-methylheptanoyl)pyrrolidin-2-yl)-3-methoxy-2-methylpropanamido)-3-(4-fluorophenyl)propanoic acid] (H-[NMeV]V[Dil][Dolaproine][Phe(4-F)]-OH)",IC50,A549 tumor cells,106 nM
